{"source": "patent US8119650B2", "about": "“Aminophenyl derivatives as novel inhibitors of histone deacetylase” (Janssen Pharmaceutica N.V., priority 2006, dated 2012)", "key": {"[1]": {"molecular_target": "histone deacetylase (HeLa nuclear extracts)", "assay": "In vitro assay for inhibition of histone deacetylase with fluorescent-labelled substrate", "format": "biochemical", "conditions": "Fluor de Lys substrate", "excerpt": "The in vitro assay for inhibition of histone deacetylase (see example C. 1) measures the inhibition of HDAC enzymatic activity obtained with the compounds of formula (I).\nThe HDAC Fluorescent Activity Assay/Drug Discovery Kit of Biomol (cat.No: AK-500-0001) was used. The HDAC Fluorescent Activity Assay is based on the Fluor de Lys (Fluorogenic Histone deAcetylase Lysyl) substrate and developer combination. The Fluor de Lys substrate, comprises an acetylated lysine side chain. Deacetylation of the substrate sensitizes the substrate so that, in the second step, treatment with the Fluor de Lys developer produces a fluorophore.\nHeLa nuclear extracts (supplier: Biomol) were incubated at 60 μg/ml with 75 μM of substrate. The Fluor de Lys substrate was added in a buffer containing 25 mM Tris, 137 mM NaCl, 2.7 mM KCl and 1 mM MgCl2.6H2O at pH 7.4. After 30 min, 1 volume of the developer was added. The fluorophore was excited with 355 nm light and the emitted light (450 nm) was be detected on a fluorometric plate reader.\nFor each experiment, controls (containing HeLa nuclear extract and buffer), a blank incubation (containing buffer but no HeLa nuclear extract) and samples (containing compound dissolved in DMSO and further diluted in buffer and HeLa nuclear extract) were run in parallel. In first instance, compounds were tested at a concentration of 10^−5M. […] All sample were tested 4 times. In each test the blank value was substracted from both the control and the sample values. The control sample represented 100% of substrate deactylation. For each sample the fluorescence was expressed as a percentage of the mean value of the controls. […] Herein the effects of test compounds are expressed as pIC50 (the negative log value of the IC50-value) (see Table F-2)."}, "[2]": {"test_system": "A2780 ovarian carcinoma cells", "assay": "Antiproliferative activity on A2780 cells (MTT)", "format": "cell-based", "conditions": "Homo sapiens, 96 h, four days of incubation, read-out: Cellular activity pIC50 C.2 (converted)", "protocol": "Cellular activity of the compounds of formula (I) was determined on A2780 tumour cells using a […] assay for cell toxicity or survival (Mosmann Tim, Journal of Immunological Methods 65: 55-63, 1983)(see example C.2).\nAll compounds tested were dissolved in DMSO and further dilutions were made in culture medium. Final DMSO concentrations never exceeded 0.1% (v/v) in cell proliferation assays. Controls contained A2780 cells and DMSO without compound and blanks contained DMSO but no cells. MTT was dissolved at 5 mg/ml in PBS. A glycine buffer comprised of 0.1 M glycine and 0.1 M NaCl buffered to pH 10.5 with NaOH (1 N) was prepared (all reagents were from Merck).\nThe human A2780 ovarian carcinoma cells (a kind gift from Dr. T. C. Hamilton [Fox Chase Cancer Centre, Pennsylvania, USA]) were cultured in RPMI 1640 medium supplemented with 2 mM L-glutamine, 50 μg/ml gentamicin and 10% fetal calf serum. Cells were routinely kept as monolayer cultures at 37° C. in a humidified 5% CO2 atmosphere. Cells were passaged once a week using a trypsin/EDTA solution at a split ratio of 1:40. All media and supplements were obtained from Life Technologies. Cells were free of mycoplasma contamination as determined using the Gen-Probe Mycoplasma Tissue Culture kit (supplier: BioMérieux).\nCells were seeded in NUNC™ 96-well culture plates (Supplier: Life Technologies) and allowed to adhere to the plastic overnight. Densities used for plating were 1500 cells per well in a total volume of 200 μl medium. After cell adhesion to the plates, medium was changed and drugs and/or solvents were added to a final volume of 200 μL Following four days of incubation, medium was replaced by 200 μl fresh medium and cell density and viability was assessed using an MTT-based assay. […] For each sample, the mean value for cell growth (in absorbance units) was expressed as a percentage of the mean value for cell growth of the control. […] Herein the effects of test compounds are expressed as pIC50 (the negative log value of the IC50-value) (see Table F-2)."}, "[3]": {"assay": "Solubility at pH 2.3 (chemiluminescent nitrogen detector)", "format": "physicochemical", "conditions": "pH 2.3, aqueous buffer; read-out: Solubility C.3.b. pH = 2.3", "protocol": "The solubility of a compound measures the ability of a compound to stay in solution. In a first method the ability of a compound to stay in aqueous solution upon dilution (see example C.3.a) is measured. DMSO-stock solutions are diluted with a single aqueous buffer solvent in different consecutive steps. In this method, mixtures are then scanned in the BD Gentest Solubility Scanner for the occurrence of precipitation. In a second method the solubility of a compound at different pH's can be measured with the use of a Chemiluminescent Nitrogen Detector (see example C.3.b).\nThe solubility of a compound, at pH 2.3, can also be measured with the use of a chemiluminescent nitrogen detector (see Table F-2)."}}, "note": "Like-named read-outs stand apart in the source and are kept apart here.", "data": [{"compound": "COc1cc(N)c(Cl)cc1C(=O)NC1CCN(CCCOc2ccc(F)cc2)CC1OC", "note": "(centres unmarked) [Cisapride]", "values": [{"measurement": "% metabolism", "setting": "human, 15 min, 5 μM", "value": 45, "unit": "%"}]}, {"compound": "CCCn1cc(CCNCC2CCN(c3ncc(C(=O)Nc4ccccc4N)cn3)CC2)c2cc(Cl)ccc21", "note": "[Compound 1]", "values": [{"measurement": "Enzymatic activity pIC50 C.1", "setting": "[1]", "value": "<6"}, {"measurement": "IC50", "setting": "[2]", "value": 3160, "unit": "nM"}]}, {"compound": "Cn1cc(CNCC2CCN(c3ncc(C(=O)Nc4ccccc4N)cn3)CC2)c2ccccc21", "note": "[Compound 2]", "values": [{"measurement": "Enzymatic activity pIC50 C.1", "setting": "[1]", "value": 4.8}, {"measurement": "IC50", "setting": "[2]", "value": 100, "unit": "nM"}, {"measurement": "solubility", "setting": "[3]", "value": 3700, "unit": "µg/mL"}]}, {"compound": "CCCn1cc(CNCC2CCN(c3ncc(C(=O)Nc4ccccc4N)cn3)CC2)c2cc(F)ccc21", "note": "[Compound 3]", "values": [{"measurement": "Enzymatic activity pIC50 C.1", "setting": "[1]", "value": "<6"}, {"measurement": "IC50", "setting": "[2]", "value": 1580, "unit": "nM"}]}, {"compound": "Nc1ccccc1NC(=O)c1cnc(N2CCC(CNCCc3c[nH]c4ccccc34)CC2)nc1", "note": "[Compound 4]", "values": [{"measurement": "Enzymatic activity pIC50 C.1", "setting": "[1]", "value": "<6"}]}, {"compound": "CS(=O)(=O)N(CCc1c[nH]c2ccccc12)CC1CCN(c2ncc(C(=O)Nc3ccccc3N)cn2)CC1", "note": "[Compound 5]", "values": [{"measurement": "Enzymatic activity pIC50 C.1", "setting": "[1]", "value": "<6"}]}, {"compound": "CCCO", "note": "[propanol]", "values": [{"measurement": "% metabolism", "setting": "15 min incubation with microsomes, compound 5 μM", "value": 25, "unit": "%"}]}]}
